Results from PubChem BioAssay AID1259407 (Chemical Carcinogenesis Research Information System (CCRIS), 2018).
The source made the active and inactive calls. The rule behind the calls is not given here.

Tested on: CCRIS mutagenicity, Ames/micronucleus/aberration tests
Experiment: CCRIS mutagenicity studies
[1] = Test System: AMES SALMONELLA TYPHIMURIUM, Strain/Indicator: TA100, Metabolic Activation: NONE, Method: STANDARD PLATE
[2] = Test System: AMES SALMONELLA TYPHIMURIUM, Strain/Indicator: TA100, Metabolic Activation: MOUSE, LIVER, S-9, AROCLOR 1254, Method: STANDARD PLATE
[3] = Test System: AMES SALMONELLA TYPHIMURIUM, Strain/Indicator: TA98, Metabolic Activation: NONE, Method: PREINCUBATION
[4] = Test System: AMES SALMONELLA TYPHIMURIUM, Strain/Indicator: TA100, Metabolic Activation: NONE, Method: PREINCUBATION
[5] = Test System: AMES SALMONELLA TYPHIMURIUM, Strain/Indicator: TA100, Metabolic Activation: RAT, LIVER, S-9, AROCLOR 1254, Method: PREINCUBATION

Measured: mutagenic call

OCC(CO)NC1CC(O)(CO)C(O)C(O)C1O (stereo not drawn)
inactive: Test System: AMES SALMONELLA TYPHIMURIUM, Strain/Indicator: TA98, Metabolic Activation: NONE inactive; negative | Test System: AMES SALMONELLA TYPHIMURIUM, Strain/Indicator: TA98, Metabolic Activation: RAT, LIVER, S-9, SODIUM PHENOBARBITAL AND 5,6-BENZOFLAVONE inactive; negative | Test System: AMES SALMONELLA TYPHIMURIUM, Strain/Indicator: TA100, Metabolic Activation: NONE inactive; negative | Test System: AMES SALMONELLA TYPHIMURIUM, Strain/Indicator: TA100, Metabolic Activation: RAT, LIVER, S-9, SODIUM PHENOBARBITAL AND 5,6-BENZOFLAVONE inactive; negative | Test System: AMES SALMONELLA TYPHIMURIUM, Strain/Indicator: TA1535, Metabolic Activation: NONE inactive; negative | Test System: AMES SALMONELLA TYPHIMURIUM, Strain/Indicator: TA1535, Metabolic Activation: RAT, LIVER, S-9, SODIUM PHENOBARBITAL AND 5,6-BENZOFLAVONE inactive; negative | Test System: AMES SALMONELLA TYPHIMURIUM, Strain/Indicator: TA1537, Metabolic Activation: NONE inactive; negative | Test System: AMES SALMONELLA TYPHIMURIUM, Strain/Indicator: TA1537, Metabolic Activation: RAT, LIVER, S-9, SODIUM PHENOBARBITAL AND 5,6-BENZOFLAVONE inactive; negative | Test System: E. COLI, Strain/Indicator: WP2 UVRA, Metabolic Activation: NONE inactive; negative | Test System: E. COLI, Strain/Indicator: WP2 UVRA, Metabolic Activation: RAT, LIVER, S-9, SODIUM PHENOBARBITAL AND 5,6-BENZOFLAVONE inactive; negative

C/C([O-])=C(/N=Nc1cc(S(N)(=O)=O)ccc1[O-])C(=O)Nc1ccccc1.C/C([O-])=C(\N=Nc1cc(S(N)(=O)=O)ccc1[O-])C(=O)Nc1ccccc1.[Co+2]
inactive: Test System: MOUSE LYMPHOMA, Strain/Indicator: L5178Y (TK+/TK-), Metabolic Activation: NONE, Method: SUSPENSION/PLATE inactive; negative. reevaluation of results: negative | Test System: MOUSE LYMPHOMA, Strain/Indicator: L5178Y (TK+/TK-), Metabolic Activation: RAT, LIVER, S-9, AROCLOR 1254, Method: SUSPENSION/PLATE inactive; negative. reevaluation of results: negative

COc1ccc(CNC(=O)C(C)Br)cc1 (stereo not drawn)
active: [1] active; positive

CCOC(=O)CNC(=O)C(C)(C)Br
inactive: [2] inactive; negative | [1] inactive; negative

O=C(Nc1ccccc1)C1CO1 (stereo not drawn)
active: [2] active; positive | [1] active; positive

O=C(CCl)NCO
inactive: Test System: AMES SALMONELLA TYPHIMURIUM, Strain/Indicator: TA97, Metabolic Activation: NONE, Method: STANDARD PLATE inactive; negative | Test System: AMES SALMONELLA TYPHIMURIUM, Strain/Indicator: TA97, Metabolic Activation: RAT, LIVER, S-9, AROCLOR 1254, Method: STANDARD PLATE inactive; negative | [3] inactive; negative | Test System: AMES SALMONELLA TYPHIMURIUM, Strain/Indicator: TA98, Metabolic Activation: NONE, Method: STANDARD PLATE inactive; negative | Test System: AMES SALMONELLA TYPHIMURIUM, Strain/Indicator: TA98, Metabolic Activation: RAT, LIVER, S-9, AROCLOR 1254, Method: PREINCUBATION inactive; negative | Test System: AMES SALMONELLA TYPHIMURIUM, Strain/Indicator: TA98, Metabolic Activation: RAT, LIVER, S-9, AROCLOR 1254, Method: STANDARD PLATE inactive; negative | [4] inactive; negative | [1] inactive; negative | [5] inactive; negative | Test System: AMES SALMONELLA TYPHIMURIUM, Strain/Indicator: TA100, Metabolic Activation: RAT, LIVER, S-9, AROCLOR 1254, Method: STANDARD PLATE inactive; negative | Test System: AMES SALMONELLA TYPHIMURIUM, Strain/Indicator: TA1535, Metabolic Activation: NONE, Method: STANDARD PLATE inactive; negative | Test System: AMES SALMONELLA TYPHIMURIUM, Strain/Indicator: TA1535, Metabolic Activation: RAT, LIVER, S-9, AROCLOR 1254, Method: STANDARD PLATE inactive; negative | Test System: AMES SALMONELLA TYPHIMURIUM, Strain/Indicator: TA1537, Metabolic Activation: NONE, Method: STANDARD PLATE inactive; negative | Test System: AMES SALMONELLA TYPHIMURIUM, Strain/Indicator: TA1537, Metabolic Activation: RAT, LIVER, S-9, AROCLOR 1254, Method: STANDARD PLATE inactive; negative | Test System: AMES SALMONELLA TYPHIMURIUM, Strain/Indicator: TA1538, Metabolic Activation: NONE, Method: STANDARD PLATE inactive; negative | Test System: AMES SALMONELLA TYPHIMURIUM, Strain/Indicator: TA1538, Metabolic Activation: RAT, LIVER, S-9, AROCLOR 1254, Method: STANDARD PLATE inactive; negative

CO/N=C(\C(=O)N[C@@H]1C(=O)N2C(C(=O)OCOC(=O)C(C)(C)C)=C(/C=C\c3scnc3C)CS[C@H]12)c1csc(N)n1
inactive: [3] inactive; negative | Test System: AMES SALMONELLA TYPHIMURIUM, Strain/Indicator: TA98, Metabolic Activation: RAT, LIVER, S-9, PHENOBARBITAL AND 5,6-BENZOFLAVONE, Method: PREINCUBATION inactive; negative | [4] inactive; negative | Test System: AMES SALMONELLA TYPHIMURIUM, Strain/Indicator: TA100, Metabolic Activation: RAT, LIVER, S-9, PHENOBARBITAL AND 5,6-BENZOFLAVONE, Method: PREINCUBATION inactive; negative | Test System: AMES SALMONELLA TYPHIMURIUM, Strain/Indicator: TA1535, Metabolic Activation: NONE, Method: PREINCUBATION inactive; negative | Test System: AMES SALMONELLA TYPHIMURIUM, Strain/Indicator: TA1535, Metabolic Activation: RAT, LIVER, S-9, PHENOBARBITAL AND 5,6-BENZOFLAVONE, Method: PREINCUBATION inactive; negative | Test System: AMES SALMONELLA TYPHIMURIUM, Strain/Indicator: TA1537, Metabolic Activation: NONE, Method: PREINCUBATION inactive; negative | Test System: AMES SALMONELLA TYPHIMURIUM, Strain/Indicator: TA1537, Metabolic Activation: RAT, LIVER, S-9, PHENOBARBITAL AND 5,6-BENZOFLAVONE, Method: PREINCUBATION inactive; negative | Test System: AMES SALMONELLA TYPHIMURIUM, Strain/Indicator: TA1538, Metabolic Activation: NONE, Method: PREINCUBATION inactive; negative | Test System: AMES SALMONELLA TYPHIMURIUM, Strain/Indicator: TA1538, Metabolic Activation: RAT, LIVER, S-9, PHENOBARBITAL AND 5,6-BENZOFLAVONE, Method: PREINCUBATION inactive; negative | Test System: E. COLI, Strain/Indicator: WP2 UVRA, Metabolic Activation: NONE, Method: PREINCUBATION inactive; negative | Test System: E. COLI, Strain/Indicator: WP2 UVRA, Metabolic Activation: RAT, LIVER, S-9, PHENOBARBITAL AND 5,6-BENZOFLAVONE, Method: PREINCUBATION inactive; negative | Test System: MOUSE LYMPHOMA, Strain/Indicator: L5178Y (TK+/TK-), Metabolic Activation: NONE inactive; negative | Test System: MOUSE LYMPHOMA, Strain/Indicator: L5178Y (TK+/TK-), Metabolic Activation: RAT, LIVER, S-9, PHENOBARBITAL AND 5,6-BENZOFLAVONE inactive; negative | Test System: UDS RAT STOMACH MUCOSA CELLS, Strain/Indicator: THY INCORP, Metabolic Activation: NONE, Method: IN VIVO-IN VITRO inactive; negative

C=C(Cl)C#N
inactive: [4] inactive; negative | [5] inactive; negative

CC(=O)N=c1sn(C(C)=O)c2ccc([N+](=O)[O-])cc12
active: Test System: AMES SALMONELLA TYPHIMURIUM, Strain/Indicator: TA100, Metabolic Activation: S-9, Method: STANDARD PLATE active; positive

Oc1cc(O)c2c(c1)O[C@H](c1ccc(O)c(O)c1)[C@@H](O)C2
inactive: Test System: Ames Salmonella typhimurium, Strain/Indicator: TA102, Metabolic Activation: None, Method: Preincubation inactive; negative | Test System: Ames Salmonella typhimurium, Strain/Indicator: TA102, Metabolic Activation: Rat, Liver, S-9, Aroclor 1254 in 0.154 M KCl, Method: Preincubation inactive; negative
